Legend:
4-HPPD = assay: Pigment production in pure cultures of soil isolates with sulcotrione; assay type: cell-based, soil isolates (bacteria); conditions: sulcotrione 18 μM, LBSM with tyrosine 1 g/l, absorbance 400 nm, relative to no inhibitor
From the text: Initial characterization of pigment included intensity of coloration and diffusion through agar media. Dark black non-diffusive pigments are indicative of DOPA melanin whereas reddish brown diffusive pigments are more likely pyomelanin. The chemical sulcotrione (Zeneca Agrochemicals) was used as a specific competitive inhibitor of 4-HPPD, the enzyme required for pyomelanin production. Methods incorporated sulcotrione to determine if pigment production was a result of 4-HPPD. Pure cultures of soil isolates were grown in LBSM and tyrosine (1 g/l) was supplemented to promote pigment production. Sulcotrione (18 μM) was added prior to pigmentation in order to differentiate pyomelanin production from other pigments that may be produced. Pigment production was quantified spectrophotometrically (400 nm) in cell free culture fluid. Controls for comparison were without tyrosine or without sulcotrione.

Tims Branch soil = assay: Field soil columns treated with tyrosine; set-up: species or system indigenous soil bacteria
Method: Additionally, the following soil properties were analyzed: percent organic matter by loss-on-ignition at a temperature of 375° C. and pH was determined from a 1:1 mineral/water equilibration solution. Also, total concentration of U in a homogenized soil sample was determined by a total microwave digestion of 0.6 g of homogenized soil material with concentrated acids (10 ml of HNO3, 4 ml of H2SO4, and 2 ml of HCl). The resulting extract solution was analyzed by ICP-MS. Changes in the organic content of soils due to pyomelanin production were also determined by spectrophotometric absorbance (400 nm) of particle free supernatants and Fourier transform infrared (FTIR) spectroscopy. Soil samples were removed (5-10 g/column) 28 days after treatment addition for pore water analysis. Optical density was determined for centrifuged soil to determine the degree of pigmentation resulting from tyrosine amendments. Dried pigments from soil effluents (60° C.) were then further characterized using FTIR spectroscopy and compared to that of pure tyrosine and dihydroxyphenylalanine (DOPA) melanin (Aldrich Chemicals). […] All samples were analyzed using a ThermoElectron Smart Orbit diamond single bounce attenuated total reflectance accessory. […] During field incubation rainfall was measured at 12.1 cm. […] Samples were processed the next day and analyzed for metals and pH.

In the case of `CS(=O)(=O)c1ccc(C(=O)C2C(=O)CCCC2=O)c(Cl)c1` [sulcotrione], the “Pigment production in bacterial cultures” value (4-HPPD) is reported as “halted”.
`N[C@@H](Cc1ccc(O)cc1)C(=O)O` [tyrosine] was tested, and the “U in pore water compared to controls” value (Tims Branch soil; 30 days after treatment, 10, 30 and 50 cm depths) was “significantly decreased” and the “Duration of U immobilization” value (Tims Branch soil; one-time addition of tyrosine to soil) was “at least 13 months”.
